This passage reports Km results from patent US6723525B2, “Methods and compositions for screening modulators of lipid kinases” (Warner-Lambert Company, priority 2000, dated 2004).

In test [1] the target is T1, human sphingosine kinase (huSPHK1) (Homo sapiens, UniProt Q9NYA1).
T1 construct: made in house; host or cells: CHO and/or COS-7 cells, transiently transfected; raw cell extract after thaw/freeze cycles
Briefly: Sphingosine kinase activity scintillation proximity assay (SPA) with extracts of transfected CHO or COS-7 cells. Type of test: biochemical. Conditions: FIG. 4B; read-out: ATP KM. In general terms: In a scintillation proximity assay essentially only radioactivity close to the scintillant gives light.
Protocol: CHO and/or COS-7 cells were cultured in 90% Ham F12 medium, 10% foetal bovine serum, Gentamycin, in T-175 tissue culture flasks in air with 5% CO2 atmosphere at 37° C. CHO and/or COS-7 cells were transiently transfected with the vector pcDNA3 alone or vector containing the human sphingosine kinase cDNA, using the Qiagen reagent Superfect. They were seeded 5×10^6 per 175 cm^2 flask. After 24 hrs, cells were transfected with 10 μg of cDNA mixed with 20 μl Superfect for 6 hrs, washed, and cultured for 2 days in complete Ham medium. They were then trypsinized, centrifuged down at 1500 rpm for 10 min, and resuspended in assay buffer. They underwent 3 thaw/freeze cycles and protein concentration were estimated using the Bradfaord technique (Biorad kit). The protein concentration was adjusted to 1 μg/μl, and aliquots were kept frozen at −20° C. […]
100 μL/well of SPA beads emulsion (corresponding to 0.5 mg/well beads). The plate is covered with a transparent Topseal (Packard), stirred for 1 hour at 800 rpm and counted on a Wallac Trilux. […]
Taking advantage of the property of these supports, a two-steps assay was set up (see FIG. 1). […] The beads settle down for an hour, and the plate is read on a scintillation counter.
Optimization of assay conditions need also the determination of adequate quantities of ATP, sphingosine, and enzyme concentration. […]

Test [2] concerns the target sphingosine kinases (SPHKs) (Homo sapiens, UniProt Q9NYA1). Conditions: cited from earlier work.

Broadly, the Km is the concentration of substrate that gives half-maximal velocity.

T1 sequence (Q9NYA1 whole entry): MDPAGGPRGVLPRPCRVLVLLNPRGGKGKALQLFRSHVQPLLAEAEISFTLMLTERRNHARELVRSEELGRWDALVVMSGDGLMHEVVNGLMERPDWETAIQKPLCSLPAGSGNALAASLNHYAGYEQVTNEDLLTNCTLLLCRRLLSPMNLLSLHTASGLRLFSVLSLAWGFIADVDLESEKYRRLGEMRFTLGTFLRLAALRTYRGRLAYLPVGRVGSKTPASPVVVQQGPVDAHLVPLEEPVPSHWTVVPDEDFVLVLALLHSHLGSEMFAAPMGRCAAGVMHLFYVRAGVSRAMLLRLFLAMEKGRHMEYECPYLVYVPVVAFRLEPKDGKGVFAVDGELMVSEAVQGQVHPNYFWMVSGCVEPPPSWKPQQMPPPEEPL
Chain of sphingosine kinases (SPHKs) (Q9NYA1 whole entry): as above

Turning to `Nc1ncnc2c1ncn2[C@@H]1O[C@H](COP(=O)(O)OP(=O)(O)OP(=O)(O)O)[C@@H](O)[C@H]1O` [ATP], the Km in test [1] was ~30 µM. As for `CCCCCCCCCCCCC/C=C/[C@@H](O)[C@@H](N)CO` [Sphingosine], the Michaelis-Menten constant (Km) in test [2] was 5 µM.
